# Test results from patent US6218438A, “Copolymer compositions for treating viral infections” (Supratek Pharma, Inc., priority 1999, dated 2001).
# Tests used:
# [1] = system: HIV-1 infection of MT2 cells; experiment: Inhibition of HIV-1 infection of uninfected MT2 cells; type: cell-based; conditions: Human immunodeficiency virus 1, compound in DMSO, 30 min before HIV
# Protocol: BBNH and Fe(III)-BBNH complex at various concentrations were examined for the ability to inhibit HIV-1 infection of uninfected MT2 cells. Aliquots of a solution of the compounds in dimethyl sulfoxide were added to uninfected MT2 cells (2×10^5 cells/ml) in RPMI medium containing 10% fetal bovine serum to provide defined final concentrations of test compound. The cells and test compounds were incubated for 30 minutes at 37° C., then inoculated with a suspension of HIV virions. The cells, test compounds and HIV were incubated for 18 h at 37° C., then the cells were collected by centrifugation, washed, and resuspended in RPMI medium containing 10% fetal bovine serum and containing the same concentration of test compound as initially employed. The cells were then cultured at 37° C. (with culture medium changes as required). HIV infection was assessed by microscopic examination of HIV-induced cytopathicity (syncytium) and/or by analysis of HIV p24 antigen levels in the culture supernatants.
# [2] = target: T1, HIV-1 reverse transcriptase (p51/p66 RT), RNAse H activity (Human immunodeficiency virus type 1 group M subtype B, UniProt P03366); experiment: Inhibition of RNAse H activity of RT; type: biochemical
# T1 construct: 10 ng of p51/p66 heterodimeric RT per assay were used
# Protocol: (§1) BBNH and Fe(III)-BBNH complex at various concentrations were examined for the ability to inhibit RNA dependent and DNA dependent DNA polymerase activities as well as RNAse H activity of HIV-1 reverse transcriptase (RT RDDP, RT DDDP, and RT RNAse H, respectively). To analyze RT RDDP and RT DDDP the following reaction mixture (100 μl total volume) was used: 50 mM Tris-HCl (pH 7.8), 60 mM KCl, 10 mM MgCl2, 10 ng of p51/p66 RT, 0.1-0.5 units of template/primer, and 0.5-25 μM [^3 H]dNTP. Aliquots of the test compounds dissolved in DMSO were added to the reaction mixtures, incubated for 10-20 min. at 37° C. and than quenched with 500 μl of cold 20 mM sodium pyrophosphate in 10% dichloroacetic acid. After 10 min. on ice, the samples were filtered on Whatman 934-AH glass fiber filters and washed with 10% dichloroacetic acid and ethanol, and the radioactivity was determined by liquid scintillation analysis. To analyze RT RNAse H the following reaction mixture (50 μl total volume) was used: 5OmM Tris-HCl (pH 8.0), 60 mM KCl, 8 mM MgCl2, and variable amounts of ([^3 H]rG)-poly(dC). Generally, 10 ng of p51/p66 heterodimeric RT per assay were used. Aliquots of the test compounds dissolved in DMSO were added to the reaction mixtures, incubated for 20 min. at 37° C. and than quenched by placing the tubes on ice followed by the addition of 100 μl of cold 7% perchloric acid. After 10 min. on ice, the samples were centrifuged at 12,000 g for 15 min. 100 μl of the supernatants were carefully removed, and the radioactivity was determined by liquid scintillation analysis.
# [3] = target: T2, HIV-1 reverse transcriptase (p51/p66 RT), RDDP activity (Human immunodeficiency virus type 1 group M subtype B, UniProt P03366); experiment: Inhibition of RNA dependent DNA polymerase activity of RT (RT RDDP); type: biochemical
# T2 construct: 10 ng of p51/p66 heterodimeric RT per assay were used
# Protocol: as §1
# HIV-1 RT = HIV-1 RT (Human immunodeficiency virus type 1 BH10, UniProt P03366); conditions: RDDP, RNase H, and DDDP; Borkow et al. 1997; cited from earlier work
# [4] = system: HIV-1 replication in cells; conditions: Borkow et al. 1997; cited from earlier work
# [5] = target: T3, HIV-1 reverse transcriptase (p51/p66 RT), DDDP activity (Human immunodeficiency virus type 1 group M subtype B, UniProt P03366); experiment: Inhibition of DNA dependent DNA polymerase activity of RT (RT DDDP); type: biochemical
# T3 construct: 10 ng of p51/p66 heterodimeric RT per assay were used
# Protocol: as §1
# HIV IN (integrase) = HIV IN (integrase) (Human immunodeficiency virus type 1 group M subtype B, UniProt P03366); experiment: Inhibition of DNA-binding activity of HIV integrase; type: biochemical; conditions: in vitro
# [6] = Cytotoxic activity against uninfected MT2 cells (XTT assay); type: cell-based, human; conditions: human, 4 days at 37° C., in DMSO
# Protocol: BBNH and Fe(III)-BBNH complex at various concentrations were examined for cytotoxic activity against uninfected MT2 cells. Aliquots of a solution of the compounds in dimethyl sulfoxide were added to the MT2 cells (2×10^5 cells/ml) in RPMI medium containing 10% fetal bovine serum to provide defined final concentrations of test compound. The cells and test compounds were cultured for 4 days at 37° C., in the presence of 5% CO2 and then cytotoxic effect of the compounds was analyzed by using the standard XTT assay. The CC50 calculated from the results were 10±0.5 μM for BBNH and more than 1000 μM for Fe(III)-BBNH.
# cells = experiment: Cytotoxicity (general statement); type: cell-based
compound,measurement,setting,value
"CC(C)(C)c1ccc(C(=O)NN=Cc2c(O)ccc3ccccc23)cc1 [BBNH, N-(4-t-butylbenzoyl)-2-hydroxy-1-naphthaldehyde hydrazone, reference compound]",IC50,[1],1.5 ± 0.5 µM
same,IC50,[2]; 10 min. preincubation,3.5 ± 0.8 µM
same,IC50,[2]; No preincubation,> 50 µM
same,preincubation needed for maximal inhibition of RT RNase H,"[2]; in vitro, preincubation of the enzyme with BBNH",10 to 15 min
same,IC50,[3],1.9 ± 0.1 µM
same,inhibition of all three enzymatic activities of HIV-1 RT in vitro,HIV-1 RT,good inhibitor of all three enzymatic activities of HIV-1 RT in vitro
same,inhibition of replication of HIV-1 in infected cells,[4],inhibits replication of HIV-1 in infected cells
same,IC50,[5],12.5 ± 5 µM
same,IC50,HIV IN (integrase),~5 µM
same,preincubation needed for maximal inhibition of IN,HIV IN (integrase); preincubation of the enzyme with BBNH,10 to 15 min
same,CC50 at 96 h,[6],10 ± 0.5 µM
same,cytotoxicity,cells,cytotoxic
